The target of one data set is T1, DsKabA (Digenea simplex, UniProt A0A4D6IA24).
T1 construct: DsKabA p28 For; His6 (N); made in house; host or cells: E. coli BL-21
T1 sequence (A0A4D6IA24 1-439): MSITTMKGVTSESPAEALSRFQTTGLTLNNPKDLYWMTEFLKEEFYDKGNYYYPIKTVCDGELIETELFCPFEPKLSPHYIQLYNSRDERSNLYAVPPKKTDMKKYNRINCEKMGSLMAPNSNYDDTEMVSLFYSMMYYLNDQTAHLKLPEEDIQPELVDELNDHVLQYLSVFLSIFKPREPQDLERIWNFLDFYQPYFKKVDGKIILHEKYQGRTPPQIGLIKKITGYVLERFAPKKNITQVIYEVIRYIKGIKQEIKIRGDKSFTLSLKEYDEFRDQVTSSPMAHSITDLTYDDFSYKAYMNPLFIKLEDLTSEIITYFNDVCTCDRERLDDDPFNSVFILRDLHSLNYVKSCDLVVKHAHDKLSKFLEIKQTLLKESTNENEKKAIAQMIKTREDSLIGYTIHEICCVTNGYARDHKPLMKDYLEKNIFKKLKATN
The experiment in a line: DsKabA activity and substrate specificity assay (LCMS). The format is biochemical. The conditions noted are these: 23° C., 5 h, LCMS (FIG. 8); for turnover to N-prenylated product when L-glutamate is exchanged for another amino acid: 5 mM amino acid, 1 mM DMAPP, 5 mM MgCl2, 20 μM DsKabA.

Data set [1] deals with ionotropic glutamate receptor (iGluR). As to conditions: literature statement; cited from earlier work.
For data set [2] the following is noted: humans in vivo; literature statement; cited from earlier work.

Entries after “also recorded” stand apart in the source; their conditions may differ.

Protocol for DsKabA: To test DsKabA activity and substrate specificity, a 50 μL reaction containing 5 mM MgCl2, 5 mM amino acid (L-Glu, D-Glu, L-Gln, L-Asp, L-Asn, or Gly), 1 mM prenyl donor (DMAPP or GPP), and 20 μM DsKabA in a buffer of 300 mM KCl and 50 mM HEPES pH 8.0 was incubated at 23° C. for 5 h. One equivalent of 0.1% formic acid in H2O was added and filtered with a VWR PES 3 k 500 μL spin column. The flow through was analyzed by an Agilent Technologies 1200 Series system with a diode-array detector coupled to an Agilent Technologies 6530 accurate-mass Q-TOF LCMS using the following method on a Synergi Polar-RP 4μ 250×4.6 mm column at 0.75 mL/min: 0% B (4.5 min), 0 to 5% B (0.5 min), 5 to 26% B (9 min), 26 to 80% B (9 min), 80 to 100% B (1 min), 100% B (1.5 min), 100 to 0% B (2.5 min), 0% B (2 min), wherein A=0.1% aqueous formic acid, and B=0.1% formic acid in acetonitrile.

`N[C@H](CCC(=O)O)C(=O)O` [D-glutamate]: on DsKabA, the “turnover to N-prenylated product when L-glutamate is exchanged for another amino acid” value is reported as “diminished turnover”.
Regarding `CC(C)=CCC/C(C)=C/COP(=O)(O)OP(=O)(O)O` [GPP], the “product formed when DMAPP is replaced by another prenyl donor” value on DsKabA (1 mM prenyl donor with 5 mM L-glutamate, 20 μM DsKabA) is listed as “formation of N-geranyl-L-glutamic acid (L-NGG)”.
For the molecule `NC(=O)C[C@H](N)C(=O)O` [L-asparagine], on DsKabA, the “turnover to N-prenylated product when L-glutamate is exchanged for another amino acid” value was “did not produce appreciable amounts of N-prenylated product”.
`N[C@@H](CC(=O)O)C(=O)O` [L-aspartate]: the “turnover to N-prenylated product when L-glutamate is exchanged for another amino acid” value on DsKabA was “did not produce appreciable amounts of N-prenylated product”.
For the molecule `NC(=O)CC[C@H](N)C(=O)O` [L-glutamine], the “turnover to N-prenylated product when L-glutamate is exchanged for another amino acid” value on DsKabA is reported as “did not produce appreciable amounts of N-prenylated product”.
Regarding `O=C(O)C[C@@H]1[C@@H](C(=O)O)NC[C@@H]1c1ccc(C(=O)O)[nH]c1=O` [acromelic acid], in data set [1], the iGluR bioactivity entry is given as “iGluR agonistic bioactivity”.
In the case of `C/C(=C/C=C/[C@@H](C)C(=O)O)[C@H]1CN[C@H](C(=O)O)[C@H]1CC(=O)O` [domoic acid], in data set [2], the “excitotoxic / neurological effects” value was “causes severe neurological problems”.
As for `NCC(=O)O` [glycine], at DsKabA, the “turnover to N-prenylated product when L-glutamate is exchanged for another amino acid” value is listed as “did not produce appreciable amounts of N-prenylated product”.
With `C=C(C)[C@H]1CN[C@H](C(=O)O)[C@H]1CC(=O)O` [kainic acid], the iGluR bioactivity entry in data set [1] was “ionotropic glutamate receptor (iGluR) agonist; also recorded: agonistic activity”. In addition, the “excitotoxic / neurological effects” value in data set [2] is recorded as “does not appear to produce excitotoxic effects”.
With kainic acid lactone, the iGluR bioactivity result in data set [1] is “iGluR antagonist”.
